Laboratory results as given in patent US7589077B2, “Antiviral nucleosides” (priority 2001, dated 2009).
In brackets after ≈: the same amount, converted by molar mass. Read-outs that look alike come from different tables or passages of the source.

Key:
[1] = test system: duck hepatitis B virus (DHBV); assay: DHBV DNA replication in primary duck hepatocytes (dot blot hybridization); type: cell-based; details: for inhibition at 10 µg/mL: read-out: % Inh. of DHBV DNA in duck hepatocytes @ 10 μg/ml
Experimental: A series of compounds were synthesized and assayed for activity against duck hepatitis B virus (DHBV). […] Test compounds were added to the hepatocyte cultures on day 2 and maintained in culture with media changed every second day until day 12. Cell were harvested at day 14 and lysed with buffer containing 1% SDS. DNA was isolated from the lysate and dot blot hybridization was performed using a DHBV (32P) DNA probe. […]
(§1) The compounds were assayed for a) their ability to inhibit DHBV DNA replication in duck hepatocytes, b) their ability to inhibit HBV DNA replication in HepG2 2.2.15 cells, c) the cell cytotoxicity in Vero cells, the cell viability in HFF cells, d) the cell proliferation in HFF cells, and e) the T cell proliferation (purified T cells, PHA stimulated). 3-TC was used as a control.

[2] = Cell cytotoxicity in Vero cells; type: cell-based; details: African green monkey, Vero cells
Experimental: as §1

[3] = test system: human HBV; assay: HBV DNA replication in HepG2 2.2.15 cells; type: cell-based, hepatitis B virus; details: for EC50: Table 3a, read-out: % Inhibition of human HBV DNA replication in HepG2 2.2.15 cells EC50
Experimental: as §1, with “control. Additional compounds described below in the Preparative Examples section were also tested, and the results are shown in Tables 2-4 below. The reference numbers for the compounds are found in the Preparative Examples.” for “control.”

[4] = test system: HSV-1 (KOSSB) HSV-TK−; assay: microbe, parasite or virus in culture; type: cell-based, Herpes simplex virus type-1; details: for HSV-1 (KOSSB) HSV-TK− EC50: Table 4
Experimental: (§2) The cells were then incubated for 24 h at 37° C. in a CO2 incubator. After incubation, the medium was removed and 100 μL of MEM containing 2% FBS was added to all but the first row. In the first row, 125 μL of experimental drug was added in triplicate wells. Medium alone was added to both cell and virus control […]. After incubation, the medium was removed and 100 μl of MEM containing 2% FBS was added to all but the first row. Medium alone was added to both cell and virus control wells. 125 μl of Experimental drug was added in triplicate wells. The drug in the first row of wells was then diluted serially 1:5 throughout the remaining wells by transferring 25 μL using the Cetus Liquid Handling Machine. After dilution of drugs, 100 μL of the appropriate virus concentration was added to each well, excluding the cell control wells which received 100 μL of MEM. For HSY-1 and HSV-2 assays, the virus concentration utilized was 1000 PFU's per well. For CMV and VZV assays, the virus concentration added was 2500 PFU's per well. The plates were then incubated at 37° C. in a CO2 incubator for 3 days for HSV-1 and HSV-2, 10 days for VZV, or 14 days for CMV. After the incubation period, media was aspirated and the cells stained with a 0.1% crystal violet solution for 30 min. The stain was then removed and the plates were allowed to dry 24 h and then read on a Skatron Plate Reader at 620 nm.

[5] = test system: HSV-2 (MS); assay: CPE inhibition assay HSV-2 (MS) in HFF cells; type: cell-based, Herpes simplex virus type-2; details: for EC50: Human alphaherpesvirus 2, HFF
Experimental: as §2, with “Cytopathic effect (CPE) inhibition assays for HSV-1, HSV-2, HCMV and VZV were performed as follows: Low passage human foreskin fibroblasts (HFF) cells were seeded into 96 well tissue culture plates 24 h prior to use at a cell concentration of 2.5×10^4 cells per mL in 0.1 mL of minimal essential medium (MEM) supplemented with 10% fetal bovine serum (FBS). The cells” for “The cells”

[6] = test system: HSV-1 (KOS) HSV-TK+; assay: HSV-1 (KOS) HSV-TK+ antiviral assay; type: cell-based, Herpes simplex virus type-1; details: Table 4
Experimental: as §2, with “Cytopathic effect (CPE) inhibition assays for HSV-1, HSV-2, HCMV and VZV were performed as follows: Low passage human foreskin fibroblasts (HFF) cells were seeded into 96 well tissue culture plates 24 h prior to use at a cell concentration of 2.5×10^4 cells per mL in 0.1 mL of minimal essential medium (MEM) supplemented with 10% fetal bovine serum (FBS). The cells” for “The cells”

[7] = test system: VZV (Ellen); assay: CPE inhibition assay VZV (Ellen) in HFF cells; type: cell-based, varicella zoster virus; details: for EC50: Human alphaherpesvirus 3, HFF
Experimental: as §2, with “Cytopathic effect (CPE) inhibition assays for HSV-1, HSV-2, HCMV and VZV were performed as follows: Low passage human foreskin fibroblasts (HFF) cells were seeded into 96 well tissue culture plates 24 h prior to use at a cell concentration of 2.5×10^4 cells per mL in 0.1 mL of minimal essential medium (MEM) supplemented with 10% fetal bovine serum (FBS). The cells” for “The cells”

[8] = test system: Epstein-Barr Virus (EBV); assay: EBV immunofluorescence assay in DAUDI cells (P3HR-1 strain); type: cell-based; details: for EC90: human gammaherpesvirus 4; for EBV EC50: Table 4
Experimental: The immunofluorescence assay, using monoclonal antibodies, for Epstein-Barr Virus (EBV) was performed as follows: DAUDI cells were infected with the P3HR-1 strain of EBV and the test drug was added after adsorption (45 min. at 37° C.) and washing of the cell cultures. These cultures were then incubated for 2 days in complete medium to allow viral gene expression. Following the 48 h incubation period, the number of cells in each sample were counted and smears were made. Monoclonal antibodies to the different early antigen (EA) components and VCA were than added to the cells, incubated and washed. This was followed by the addition of a fluorescein conjugated rabbit anti mouse Ig antibodies. The number of fluorescence positive cells in the smears were counted and the total number of cells in the cultures positive for EA or VCA were then calculated and compared.

[9] = test system: HSV-1 (E-377); assay: CPE inhibition assay HSV-1 (E-377) in HFF cells; type: cell-based, Herpes simplex virus type-1; details: for EC50: Human alphaherpesvirus 1, HFF
Experimental: as §2, with “Cytopathic effect (CPE) inhibition assays for HSV-1, HSV-2, HCMV and VZV were performed as follows: Low passage human foreskin fibroblasts (HFF) cells were seeded into 96 well tissue culture plates 24 h prior to use at a cell concentration of 2.5×10^4 cells per mL in 0.1 mL of minimal essential medium (MEM) supplemented with 10% fetal bovine serum (FBS). The cells” for “The cells”

[10] = test system: HCMV (AD169); assay: CPE inhibition assay HCMV (AD169) in HFF cells; type: cell-based, human cytomegalovirus; details: for EC50: Human betaherpesvirus 5, AD169, HFF
Experimental: as §2, with “Cytopathic effect (CPE) inhibition assays for HSV-1, HSV-2, HCMV and VZV were performed as follows: Low passage human foreskin fibroblasts (HFF) cells were seeded into 96 well tissue culture plates 24 h prior to use at a cell concentration of 2.5×10^4 cells per mL in 0.1 mL of minimal essential medium (MEM) supplemented with 10% fetal bovine serum (FBS). The cells” for “The cells”

[11] = Duck hepatitis B virus, Hepatocyte
[12] = Duck hepatitis B virus, Hepatocyte, Table 2, value in brackets, read-out: DHBV DNA in duck hepatocytes [EC50, μg/ml]

## O=c1[nH]c(=O)n(CCC(CO)CO)cc1I [Compound 19, 1-[4-Hydroxy-3-(hydroxymethyl)-1-butyl]-5-iodouracil]
[1]; [11]
  inhibition at 10 µg/mL: 65.2%
[2]; Table 2
  CC50: > 200 µg/mL
[3]; Hepatitis B virus, HepG2 2.2.15, read-out: % Inh. of human HBV DNA replication in HepG2 2.2.15 cells @ 0.01 μg/ml (right)
  inhibition at 0.01 µg/mL: 18.1%
[3]; Hepatitis B virus, HepG2 2.2.15, read-out: % Inh. of human HBV DNA replication in HepG2 2.2.15 cells @ 0.1 μg/ml (left)
  inhibition at 0.1 µg/mL: 69.1%

## Nc1nc2c(ncn2COCCO)c(=O)[nH]1 [Acyclovir, acyclovir, reference compound]
[4]; Human alphaherpesvirus 1, read-out: HSV-1 (KOSSB) HSV-TK− EC50, μg/ml
  EC50: > 100 µg/mL
[5]; Table 3b
  EC50: 6.16 µM
[5]; Table 4
  EC50: 0.6 µg/mL
[6]; Human alphaherpesvirus 1
  EC50: < 1 µg/mL
[2]; Table 3b
  CC50: > 400 µM
[7]; Table 2
  EC50: 0.6 µg/mL
[7]; Table 3a
  EC50: 0.03 µg/mL
[7]; Table 3b
  EC50: 3.96 µM
[7]; Table 4
  EC50: 0.08 µg/mL
[8]; Table 4, in parentheses
  EBV EC90: > 50 µg/mL
[8]; Table 5, in parentheses
  EBV EC90: (EC90 = >50) μg/ml
[8]; human gammaherpesvirus 4, Table 3a, read-out: EBV EC50
  EC50: 1 µg/mL (≈ 4.44 µM)
[8]; human gammaherpesvirus 4, Table 4, read-out: EBV EC50
  EC50: 1.4 µg/mL (≈ 6.22 µM)
[8]; human gammaherpesvirus 4, Table 5, read-out: EBV EC50
  EC50: 1 µg/mL (≈ 4.44 µM)
[8]; human gammaherpesvirus 4, running text, read-out: anti EBV activity EC50
  EC50: 1 µg/mL (≈ 4.44 µM)
[8]; Table 3a, in parentheses, read-out: EBV EC90
  EC90: > 50 µg/mL
[8]; read-out: anti EBV activity EC90
  EC90: > 50 µg/mL
[9]; Table 3b
  EC50: 3.08 µM
[9]; Table 4
  EC50: 0.2 µg/mL

## (5R,6R) 5-fluoro-O^6-5′-cyclo-5,6-dihydro-2′-deoxythymidine [Compound R-25]
[10]; Table 4
  HCMV (AD-169) EC50: >100 µg/mL
[4]
  HSV-1 (KOSSB) HSV-TK− EC50: >50 µg/mL
[5]; Table 4
  HSV-2 (MS) EC50: >100 µg/mL
[6]
  HSV-1 (KOS) HSV-TK+ EC50: >25 µg/mL
[7]; Table 4
  VZV (Ellen) EC50: >100 µg/mL
[8]
  EBV EC50: 0.6 to 3.0 µg/mL
[9]; Table 4
  HSV-1 (E-377) EC50, μg/ml: >100 μg/ml

## (5S,6R) 5-fluoro-O^6-5′-cyclo-5,6-dihydro-2′-deoxythymidine [Compound R-23]
[10]; Table 4
  HCMV (AD-169) EC50: >100 µg/mL
[4]
  HSV-1 (KOSSB) HSV-TK− EC50: >50 µg/mL
[5]; Table 4
  HSV-2 (MS) EC50: >100 µg/mL
[6]
  HSV-1 (KOS) HSV-TK+ EC50: >25 µg/mL
[7]; Table 4
  VZV (Ellen) EC50: >100 µg/mL
[8]
  EBV EC50: 0.1 to 1.4 µg/mL
[8]; Table 4, in parentheses
  EBV EC90: (EC90 = 7.3) μg/ml
[9]; Table 4
  HSV-1 (E-377) EC50, μg/ml: >100 μg/ml

## [(−)-(6S)]-5-bromo-6-ethoxy-5,6-dihydro-3′-fluoro-2′,3′-dideoxyuridine [RB-4]
[1]; Table 3a, read-out: % Inhibition of DHBV DNA in duck hepatocytes EC50
  EC50: > 10 µM
[3]
  EC50: 3 µM

## [(+)(6R)]-5-bromo-6-ethoxy-5,6dihydro-3′-fluoro-2′,3′-dideoxyuridine [RB-5]
[1]; Table 3a
  % Inhibition of DHBV DNA in duck hepatocytes EC50 μM: not active
[3]
  EC50: 5 µM

## [N-]=[N+]=NC1C(Cl)C(=O)NC(=O)N1[C@H]1C[C@H](O)[C@@H](CO)O1 (stereo partly shown) [RB-10, 5-Chloro-6-azido-5,6-dihydro-2′-deoxyuridine]
[5]; Table 3b
  EC50: 1.6 µM
[2]; Table 3b
  CC50: > 327 µM
[7]; Table 3b
  EC50: 9.8 µM
[9]; Table 3b
  EC50: 0.33 µM

## C=Cc1cn(COC(CO)CO)c(=O)[nH]c1=O [Compound 9a, 1-[(2-Hydroxy-1-(hydroxymethyl)ethoxy)methyl]-5-vinyluracil]
[1]; [11]
  inhibition at 10 µg/mL: 82%
[1]; [12]
  EC50: 0.3 to 1 µg/mL
[2]; Table 2
  CC50: > 100 µg/mL

## (5S,6S)5-Bromo-O^6-5′-cyclo-5,6-dihydro-5-ethyl-2′-deoxyuridine [Compound R-9]
[4]
  HSV-1 (KOSSB) HSV-TK− EC50: 10 to 25 µg/mL
[5]; Table 4
  HSV-2 (MS) EC50: 10 µg/mL
[6]
  HSV-1 (KOS) HSV-TK+ EC50: 1 to 5 µg/mL
[9]; Table 4
  HSV-1 (E-377) EC50, μg/ml: 4.0 μg/ml

## Nc1nc(O)c2ncn(COC(CO)CO)c2n1 [Gancyclovir, ganciclovir, reference compound]
[10]; Table 2
  EC50: 0.06 µg/mL (≈ 0.235 µM)
[10]; Table 4, read-out: HCMV (AD-169) EC50
  EC50: 0.1 µg/mL (≈ 0.392 µM)
[7]; Table 4
  EC50: 0.1 µg/mL

## C=Cc1cn(CCC(CO)CO)c(=O)[nH]c1=O [Compound 20, 1-[4-Hydroxy-3-(hydroxymethyl)-1-butyl]-5-vinyluracil]
[1]; [11]
  inhibition at 10 µg/mL: 80%
[1]; [12]
  EC50: 1 to 3 µg/mL
[2]; Table 2
  CC50: > 100 µg/mL

## (5R,6S) 5-fluoro-O^6-5′-cyclo-5,6-dihydro-2′-deoxythymidine [Compound R-24]
[10]; Table 4
  HCMV (AD-169) EC50: >100 µg/mL
[4]
  HSV-1 (KOSSB) HSV-TK− EC50: >50 µg/mL
[5]; Table 4
  HSV-2 (MS) EC50: >100 µg/mL
[6]
  HSV-1 (KOS) HSV-TK+ EC50: >25 µg/mL
[7]; Table 4
  VZV (Ellen) EC50: >100 µg/mL
[8]
  EBV EC50: 0.6 to 2.8 µg/mL
[8]; Table 4, in parentheses
  EBV EC90: (EC90 = 3.8) μg/ml
[9]; Table 4
  HSV-1 (E-377) EC50, μg/ml: >100 μg/ml
